Data published in patent publication US8669272B2, “2,5-disubstituted piperidine orexin receptor antagonists” (Merck Sharp & Dohme Corp., priority 2008, dated 2014).

Legend:
[1] = target: T1, orexin-2 receptor (OX2R) (Homo sapiens, UniProt O43614); test: radioligand binding assay, membranes from CHO cells expressing OX2; conditions: CHO cell membranes
T1 construct: expressed in transfected cells; host or cells: CHO cells (membranes)
T1 sequence (O43614 1-444): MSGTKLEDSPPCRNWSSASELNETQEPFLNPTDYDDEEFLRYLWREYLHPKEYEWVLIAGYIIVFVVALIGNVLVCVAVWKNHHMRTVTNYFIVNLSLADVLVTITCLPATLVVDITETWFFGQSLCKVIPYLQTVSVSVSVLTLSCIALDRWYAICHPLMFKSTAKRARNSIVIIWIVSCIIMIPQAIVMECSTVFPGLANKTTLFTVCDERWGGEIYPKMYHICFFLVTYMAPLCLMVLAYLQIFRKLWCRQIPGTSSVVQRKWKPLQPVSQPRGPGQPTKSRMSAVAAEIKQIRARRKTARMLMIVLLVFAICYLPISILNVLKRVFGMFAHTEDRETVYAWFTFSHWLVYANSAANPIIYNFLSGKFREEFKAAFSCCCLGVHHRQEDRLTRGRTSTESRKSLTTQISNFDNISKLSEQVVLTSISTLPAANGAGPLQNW
Procedure: (§1) The utility of the compounds in accordance with the present invention as orexin receptor OX1R and/or OX2R antagonists may be readily determined without undue experimentation by methodology well known in the art, including the “FLIPR Ca^2+ Flux Assay” (Okumura et al., Biochem. Biophys. Res. Comm. 280:976-981, 2001). In a typical experiment the OX1 and OX2 receptor antagonistic activity of the compounds of the present invention was determined in accordance with the following experimental method. For intracellular calcium measurements, Chinese hamster ovary (CHO) cells expressing the rat OX1 receptor or the human OX2 receptor, are grown in Iscove's modified DMEM containing 2 mM L-glutamine, […], 1% hypoxanthine-thymidine supplement, 100 U/ml penicillin, 100 ug/ml streptomycin and 10% heat-inactivated fetal calf serum (FCS). The cells are seeded at 20,000 cells/well into Becton-Dickinson black 384-well clear bottom sterile plates coated with poly-D-lysine. All reagents were from GIBCO-Invitrogen Corp. The seeded plates are incubated overnight at 37° C. and 5% CO2. Ala-6,12 human orexin-A as the agonist is prepared as a 1 mM stock solution in 1% bovine serum albumin (BSA) and diluted in assay buffer (HBSS containing 20 mM HEPES, 0.1% BSA and 2.5 mM probenecid, pH7.4) for use in the assay at a final concentration of 70 pM. Test compounds are prepared as 10 mM stock solution in DMSO, then diluted in 384-well plates, first in DMSO, then assay buffer. On the day of the assay, cells are washed 3 times with 100 ul assay buffer and then incubated for 60 min (37° C., 5% CO2) in 60 ul assay buffer containing 1 uM Fluo-4AM ester, 0.02% pluronic acid, and 1% BSA. The dye loading solution is then aspirated and cells are washed 3 times with 100 ul assay buffer. 30 ul of that same buffer is left in each well. Within the Fluorescent Imaging Plate Reader (FLIPR, Molecular Devices), test compounds are added to the plate in a volume of 25 ul, incubated for 5 min and finally 25 ul of agonist is added. Fluorescence is measured for each well at 1 second intervals for 5 minutes and the height of each fluorescence peak is compared to the height of the fluorescence peak induced by 70 pM Ala-6,12 orexin-A with buffer in place of antagonist. […] Alternatively, compound potency can be assessed by a radioligand binding assay (described in Bergman et. al. Bioorg. Med. Chem. Lett. 2008, 18, 1425-1430) in which the inhibition constant (Ki) is determined in membranes prepared from CHO cells expressing either the orexin-1 (OX1) or orexin-2 (OX2) receptor. The intrinsic orexin receptor antagonist activity of a compound which may be used in the present invention may be determined by these assays.

[2] = target: T2, orexin-1 receptor (OX1R) (Homo sapiens, UniProt O43613); test: radioligand binding assay, membranes from CHO cells expressing OX1; conditions: CHO cell membranes
T2 construct: expressed in transfected cells; host or cells: CHO cells (membranes)
T2 sequence (O43613 1-425): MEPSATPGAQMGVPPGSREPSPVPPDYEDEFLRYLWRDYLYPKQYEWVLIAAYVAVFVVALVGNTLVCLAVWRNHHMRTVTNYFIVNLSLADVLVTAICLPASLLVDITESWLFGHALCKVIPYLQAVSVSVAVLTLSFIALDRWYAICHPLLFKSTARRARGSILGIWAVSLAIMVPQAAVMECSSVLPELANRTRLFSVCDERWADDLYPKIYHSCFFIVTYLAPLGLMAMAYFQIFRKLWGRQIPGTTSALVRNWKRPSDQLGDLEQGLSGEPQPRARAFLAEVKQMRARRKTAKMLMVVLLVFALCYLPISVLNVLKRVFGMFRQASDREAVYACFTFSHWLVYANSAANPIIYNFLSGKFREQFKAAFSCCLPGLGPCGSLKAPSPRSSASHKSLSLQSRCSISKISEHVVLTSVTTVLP
Procedure: as §1

Compound	Ki [1]	Ki [2]
Cc1ccc(-n2nccn2)c(C(=O)N2C[C@H](COc3cccc(F)c3)CC[C@H]2C)c1 [A-9, (2R,5R)-5-[(3-fluorophenoxy)methyl]-2-methyl-1-[5-methyl-2-(2H-1,2,3-triazol-2-yl)benzoyl]piperidine]	0.36 nM	0.86 nM
Cc1ccc(-n2nccn2)c(C(=O)N2C[C@H](COc3nccc4ccccc34)CC[C@H]2C)c1 [A-15, 1-({(3R,6R)-6-methyl-1-[5-methyl-2-(2H-1,2,3-triazol-2-yl)benzoyl]piperidine-3-yl}methoxy)isoquinoline]	0.2 nM	2.7 nM
Cc1ccc(-n2nccn2)c(C(=O)N2C[C@H](Cc3nc4ccccc4n3C)CC[C@H]2C)c1 [C-2, 1-methyl-2-({(3S,6R)-6-methyl-1-[5-methyl-2-(2H-1,2,3-triazol-2-yl)benzoyl]piperidin-3-yl}methyl)-1H-benzimidazole]	4.6 nM	4.5 nM
Cc1ccc(-n2nccn2)c(C(=O)N2C[C@H](CC(=O)N3CCCc4ccccc43)CC[C@H]2C)c1 [C-6, 1-({(3S,6R)-6-methyl-1-[5-methyl-2-(2H-1,2,3-triazol-2-yl)benzoyl]piperidin-3-yl}acetyl)-1,2,3,4-tetrahydroquinoline]	6.9 nM	95 nM
